Laboratory results published in patent US11731943B2, “Therapeutic compounds, compositions and methods of use thereof” (priority 2016, dated 2023).

How the values were obtained:
[1] = tested on: JAK1-dependent STAT6 phosphorylation downstream of IL-13 stimulation in BEAS-2B human bronchial epithelial cells; assay: JAK1 pathway assay in BEAS-2B cells (IL-13-pSTAT6, MSD); assay type: cell-based; details: Homo sapiens, BEAS-2B, BEAS-2B cells, IL-13 stimulation; read-out: IL-13 p-STAT6 BEAS-2B IC50
[2] = target: isolated recombinant JAK1 kinase domain (Homo sapiens (Human), UniProt P23458); assay: JAK1 enzyme assay (Caliper LabChip, Ki); assay type: biochemical; details: read-out: JAK1 Ki
Sequence of isolated recombinant JAK1 kinase domain (P23458 875-1153): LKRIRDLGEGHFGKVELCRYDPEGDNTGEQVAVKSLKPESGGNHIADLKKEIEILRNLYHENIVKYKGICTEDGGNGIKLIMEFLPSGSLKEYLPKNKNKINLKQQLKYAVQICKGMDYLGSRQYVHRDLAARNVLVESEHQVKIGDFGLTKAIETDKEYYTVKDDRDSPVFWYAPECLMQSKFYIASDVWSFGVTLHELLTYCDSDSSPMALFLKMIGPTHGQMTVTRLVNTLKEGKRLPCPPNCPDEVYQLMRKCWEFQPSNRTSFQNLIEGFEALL
Summary of the method: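 Ki derived via Morrison tight-binding model, ATP-competitive correction applied. Read-out: product/total ratio of a 5-carboxyfluorescein-tagged JAK3 peptide separated on Caliper LabChip after phosphorylation by isolated human JAK1 kinase domain (22 °C, 30 min; EDTA quench, 50 mM final).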

[3] = target: isolated recombinant JAK2 kinase domain (Homo sapiens (Human), UniProt O60674); assay: JAK2 enzyme assay (Caliper LabChip, Ki); assay type: biochemical
Sequence of isolated recombinant JAK2 kinase domain (O60674 849-1124): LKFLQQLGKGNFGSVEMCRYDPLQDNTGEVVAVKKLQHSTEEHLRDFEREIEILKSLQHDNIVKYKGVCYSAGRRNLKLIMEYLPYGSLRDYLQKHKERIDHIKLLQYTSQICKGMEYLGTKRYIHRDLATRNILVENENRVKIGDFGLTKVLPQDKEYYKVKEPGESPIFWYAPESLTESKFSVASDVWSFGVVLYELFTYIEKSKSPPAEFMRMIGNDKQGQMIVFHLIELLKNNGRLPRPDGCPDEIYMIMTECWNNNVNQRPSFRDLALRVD
Summary of the method: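 Caliper LabChip readout of phosphorylated product as a fraction of total substrate, a fluorescently N-terminally labelled JAK3-derived peptide. Isolated human JAK kinase domains were incubated 30 min at 22 °C before EDTA quench (50 mM final).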

`N#CCC1(n2cc(C(N)=O)c(NC(=O)C3CC3)n2)CCN(Cc2ccc(-c3ccccc3)c(C#N)c2)CC1` [Example 161, 1-[4-(cyanomethyl)-1-[(3-cyano-4-phenyl-phenyl)methyl]-4-piperidyl]-3-(cyclopropanecarbonylamino) pyrazole-4-carboxamide] gave an IC50 [1] of 1010 nM, a Ki [2] of 5.5 nM and a Ki [3] of 35.3 nM.
Work on `N#CCC1(n2cc(C(N)=O)c(NC(=O)C3CC3)n2)CCN(Cc2ccc(-c3csc(Cl)c3)c(F)c2)CC1` [Example 141, 1-[1-[[4-(5-chloro-3-thienyl)-3-fluoro-phenyl]methyl]-4-(cyanomethyl)-4-piperidyl]-3-(cyclopropanecarbonylamino) pyrazole-4-carboxamide] yielded an IC50 [1] of 62 nM, a Ki [2] of 0.8 nM and a Ki [3] of 3.4 nM.
`COC(=O)Nc1nn(C2(CC#N)CCN(Cc3ccc(-c4ccco4)c(O)c3)CC2F)cc1C(N)=O` (stereo not drawn) [Example 224, methyl N-[4-carbamoyl-1-[4-(cyanomethyl)-3-fluoro-1-[[4-(2-furyl)-3-hydroxy-phenyl]methyl]-4-piperidyl]pyrazol-3-yl]carbamate] showed an IC50 [1] of 19 nM, a Ki [2] of 0.16 nM and a Ki [3] of 0.15 nM.
`COC(=O)Nc1nn(C2(CC#N)CCN(Cc3cc(O)c(-c4ccc(C)o4)cc3F)CC2F)cc1C(N)=O` (stereo not drawn) [Example 256, methyl N-[4-carbamoyl-1-[4-(cyanomethyl)-3-fluoro-1-[[2-fluoro-5-hydroxy-4-(5-methyl-2-furyl)phenyl]methyl]-4-piperidyl]pyrazol-3-yl]carbamate] was tested, and the IC50 [1] was 47 nM, the Ki [2] was 0.15 nM and the Ki [3] was 0.89 nM.
In the case of `N#CCC1(n2cc(C(N)=O)c(NC(=O)C3CC3)n2)CCC(Nc2ccc(-c3ccco3)cc2)CC1` (stereo not drawn) [Example 276, 1-[1-(cyanomethyl)-4-[4-(2-furyl)anilino]cyclohexyl]-3-(cyclopropanecarbonylamino) pyrazole-4-carboxamide], the IC50 [1] is reported as 9 nM, the Ki [2] is reported as 0.25 nM and the Ki [3] is reported as 2.2 nM.
Compound `COC(=O)Nc1nn(C2(CC#N)CCN(Cc3cc(O)cc(F)c3)CC2F)cc1C(N)=O` (stereo not drawn) [Example 293, methyl N-[4-carbamoyl-1-[4-(cyanomethyl)-3-fluoro-1-[(3-fluoro-5-hydroxy-phenyl)methyl]-4-piperidyl]pyrazol-3-yl]carbamate] has an IC50 [1] of 55 nM, a Ki [2] of 0.3 nM and a Ki [3] of 0.34 nM.
`N#CCC1(n2cc(C(N)=O)c(NC(=O)C3CC3)n2)CCN(Cc2ccc(-c3ccccc3)nc2F)CC1` [Example 188, 1-[4-(cyanomethyl)-1-[(2-fluoro-6-phenyl-3-pyridyl)methyl]-4-piperidyl]-3-(cyclopropanecarbonylamino) pyrazole-4-carboxamide] was tested, and the IC50 [1] was 34 nM, the Ki [2] was 0.6 nM and the Ki [3] was 1.4 nM.
With `COC(=O)Nc1nn(C2(CC#N)CCN(Cc3ccc(-c4ccccc4)nc3)CC2F)cc1C(N)=O` (stereo not drawn) [Example 196, methyl N-[4-carbamoyl-1-[4-(cyanomethyl)-3-fluoro-1-[(6-phenyl-3-pyridyl)methyl]-4-piperidyl]pyrazol-3-yl]carbamate] the IC50 [1] was 30 nM, the Ki [2] was 0.26 nM and the Ki [3] was 0.27 nM.
`CCOC(=O)Nc1nn(C2(CC#N)CCN(Cc3ccc(-c4ccccc4)c(O)c3)CC2)cc1C(N)=O` [Example 187, ethyl N-[4-carbamoyl-1-[4-(cyanomethyl)-1-[(3-hydroxy-4-phenyl-phenyl)methyl]-4-piperidyl]pyrazol-3-yl]carbamate] showed an IC50 [1] of 74 nM, a Ki [2] of 0.52 nM and a Ki [3] of 3.1 nM.
`N#CCC1(n2cc(C(N)=O)c(NC(=O)C3CC3)n2)CCN(Cc2ccc(C#CC3CC3)cc2)CC1` [Example 299, 1-(4-(Cyanomethyl)-1-(4-(cyclopropylethynyl)benzyl)piperidin-4-yl)-3-(cyclopropanecarboxamido)-1H-pyrazole-4-carboxamide] gave an IC50 [1] of 85 nM, a Ki [2] of 1.1 nM and a Ki [3] of 3 nM.
Compound `COC(=O)Nc1nn(C2(CC#N)CCN(Cc3ccc(-c4ccco4)cc3)CC2F)cc1C(N)=O` (stereo not drawn) [Example 220, methyl N-[4-carbamoyl-1-[4-(cyanomethyl)-3-fluoro-1-[[4-(2-furyl)phenyl]methyl]-4-piperidyl]pyrazol-3-yl]carbamate] has an IC50 [1] of 15 nM, a Ki [2] of 0.27 nM and a Ki [3] of 0.44 nM.
